In patent US20110045100A1, “Antimalarial Quinolines and Methods of Use Thereof” (GEORGETOWN UNIVERSITY, priority 2008, published 2011):
Read-outs that look alike come from different tables or passages of the source.

Experiments:
[1] = tested on: Dd2 (chloroquine resistant strain of P. falciparum); test: SYBR Green I antiplasmodial assay, strain Dd2; type: cell-based, Plasmodium falciparum
Excerpt: (§1) Bennett T. N.; Paguio, M.; Gligorijevic, B.; Seudieu, C.; Kosar, A. D.; Davidson, E.; Roepe, P. D. Novel, rapid, and inexpensive cell-based quantification of antimalarial drug efficacy. Antimicrob. Agents Chemother. 2004, 48, 1807-1810; Smilkstein, M.; Sriwilaijaroen, N.; Kelly, J. X.; Wilairat, P.; Riscoe, M. Simple and inexpensive fluorescence-based technique for high-throughput antimalarial drug screening. Antimicrob. Agents Chemother. 2004, 48, 1803-1806; and Johnson, J. D.; Dennull, R. A.; Gerena, L.; Lopez-Sanchez, M.; Roncal, N. E.; Waters, N.C. Assessment and continued validation of the malaria SYBR green I-based fluorescence assay for use in malaria drug screening. Antimicrob. Agents Chemother. 2007, 51, 1926-1933. […] Drake, N. L.; Creech, H. J.; Garman, J. A.; Haywood, S. T.; Peck, R. M.; van Hook, J. O.; Walton, E. Synthetic antimalrials. The preparation of certain 4-aminoquinolines. J. Am. Chem. Soc. […] Trans. R. Soc. Trop. Med. Hyg. […] J. Parasitol. 1983, 69, 97-105. The selectivity index provides a quantitative measure of the antimalarial activity against CQR strains relative to that against sensitive strains and thus indicates promising drug discovery leads. […] This can be combined with the introduction of a third basic amino function which should further favor accumulation of the drug within the acidic food vacuole of the parasite.
The antiplasmodial activity of these compounds was measured versus a CQS (HB3) and a CQR (Dd2) strain using a standardized, inexpensive assay based on SYBR Green I intercalation. Bennett T. N.; Paguio, M.; Gligorijevic, B.; Seudieu, C.; Kosar, A. D.; Davidson, E.; Roepe, P. D. Antimicrob. Agents Chemother. 2004, 48, 1807-1810; Smilkstein, M.; Sriwilaijaroen, N.; Kelly, J. X.; Wilairat, P.; Riscoe, M. Antimicrob. Agents Chemother. 2004, 48, 1803-1806; and Johnson, J. D.; Dennull, R. A.; Gerena, L.; Lopez-Sanchez, M.; Roncal, N. E.; Waters, N.C. Antimicrob. Agents Chemother. 2007, 51, 1926-1933. […] De, D.; Krogstad, F. M.; Cogswell, F. B.; Krogstad, D. J. Am. J. Trop. Med. Hyg. 1996, 55, 579-583. […] The basic tertiary amino function in the side chain is commonly believed to be crucial for the accumulation of the drug within the acidic food DV.
(§2) Drug activities were assessed and IC50 were quantified essentially as described previously. Delarue, S.; Girault, S.; Maes, L.; Debreu-Fontaine, M. A.; Labaeid, M.; Grellier, P.; Sergheraert, C. Synthesis and in vitro and in vivo antimalarial activity of new 4-anilinoquinolines. J. Med. Chem. 2001, 44, 2827-2833; and O'Neill, P. M.; Willock, D. J.; Hawley, S. R.; Bray, P. G.; Storr, R. C.; Ward, S. A.; Park, B. K. Synthesis, antimalarial activity, and molecular modeling of tebuquine analogues. J. Med. Chem. 1997, 40, 437-448. The aminoquinolines were diluted using complete media under sterile conditions and plated in a 96 well plate format. Sorbitol synchronized cultures were utilized with >95% of the parasites at the ring stage. Cultures were diluted to give a working stock of 0.5% parasitemia and 2% hematocrit (final hematocrit 1% & 0.5% Parasitemia). The plates were incubated for 72 h at 37° C. After 72 h, 50 μL of 10×SYBR green I dye was added to each well, and the plate was incubated for 1 h at 37° C. Fluorescence was measured at 530 nm (490 nm excitation) using a spectra geminiEM plate reader. Data analysis was performed using sigma plot 9.0 software after downloading data in Excel format.

[2] = tested on: FCB (CQR strain of P. falciparum); test: SYBR Green I antiplasmodial assay, strain FCB; type: cell-based, Plasmodium falciparum; conditions: Plasmodium falciparum, read-out: IC50 for FCB
Excerpt: as §1, §2

monomeric heme = test: Heme affinity measurement, monomeric heme; type: binding; conditions: acidic 40% DMSO
Protocol: To test whether binding to Hz precursors is also altered for the 4S and 4O derivatives, binding constants were measured as previously described for both μ-oxo dimeric and monomeric heme (FIG. 25). […] J. Am. Chem. Soc. 1988, 110, 4391-4395; Egan, T. J.; Mavuso, W. W.; Ross, D. C.; Marques, H. M. Thermodynamic factors controlling the interaction of quinoline antimalarial drugs with ferriprotoporphyrin IX. J. Inorg. Biochem. 1997, 68, 137-145; and Egan, T. J.; Ncokazi, K. K. Effects of solvent composition and ionic strength on the interaction of quinoline antimalarials with ferriprotoporphyrin IX. J. Inorg. Biochem. 2004, 98, 144-152. Due to the instability of monomeric heme in aqueous solution, the affinity to monomer measured by conventional absorbance experiments can only be estimated using 40% DMSO in water as solvent. Egan, T. J.; Ncokazi, K. K. Effects of solvent composition and ionic strength on the interaction of quinoline antimalarials with ferriprotoporphyrin IX. J. Inorg. Biochem. 2004, 98, 144-152. At appropriately acidic solution pH (≦5.0) FPIX heme is primarily monomeric, whereas at pH 7, appreciable dimer is formed. As shown (FIG. 25), CQ and compounds 88, 93, and 98 all have poor affinity for monomeric heme in acidic 40% DMSO. To further test if CQ interacts with monomeric heme, T1 measurements of the CQ protons were made with samples containing 10 mM CQ and 2 mM hemin chloride in 40% DMSO at pH 5.0. Although the lines are broadened in this solution due to paramagnetic susceptibility, the measured T1's indicate only weak paramagnetic relaxation. For example, the measured T1 for CQ proton 1 in this sample is 0.70 s, whereas at pH 7.0 the T1 for the same proton is 0.039 s.
To measure affinity for monomeric heme, 1.2 mM stock solutions of hemin (sodium salt from Sigma-Aldrich) were prepared in DMSO and stored as […] aliquots. 4.8 μM working solutions were prepared in 40% DMSO/phosphate buffer (fresh stocks prepared daily). Stock solutions of CQ and CQ analogues (diphosphate or dihydrochloride salts) were prepared in 40% DMSO/phosphate buffer and used for the titration experiments (all drugs dilutions were prepared in the same buffer).
1.5 mL cuvettes containing freshly prepared samples of 4.8 μM heme were titrated with increasing concentrations (0-50 μM) of drug. Following each addition, the sample was mixed and heme absorbance then recorded at 402 nm. Control experiments were performed by titrating 4.8 μM heme with similar volumes of solvent and no drug present. […] The absorbance peak analysis was done using Microsoft excel and Ka were extracted from the ΔAbs402 plots via Scatchard analysis using Microsoft Excel and Sigma plot 9.0.1 software.

μ-oxo dimeric heme = test: Heme affinity measurement, μ-oxo dimeric heme; type: binding; conditions: aqueous solution
Protocol: 1.5 mL cuvettes containing freshly prepared samples of 4.8 μM heme were titrated with increasing concentrations (0-50 μM) of drug. Following each addition, the sample was mixed and heme absorbance then recorded at 402 nm. Control experiments were performed by titrating 4.8 μM heme with similar volumes of solvent and no drug present. To measure affinity for μ-oxo dimeric heme, the procedure was similar except hemin was first converted to dimeric form in mild alkaline solution, followed by titration to pH 7.5 using Hepes buffer. The absorbance peak analysis was done using Microsoft excel and Ka were extracted from the ΔAbs402 plots via Scatchard analysis using Microsoft Excel and Sigma plot 9.0.1 software.

hemozoin (Hz) formation = test: Quantification of in vitro Hz formation inhibition; type: biochemical
Protocol: A stock solution of 5 mM hemin (Fluka) in 0.1M NaOH was prepared and stored as small aliquots at -20° C. Fresh aliquots were thawed daily to room temperature before use. Lecithin stock solutions were prepared by dissolving in distilled water to 10 mg/ml and similarly stored. 0.5 M propionate was used to buffer experiments in the pH range 5.2-5.6. The assay mixture (1 mL volumes) contained: 200 μL lecithin solution ([…] final) 20 μL hematin (100 μM final concentration) 20 μ[…] propionate buffer (X) μL drug (dependant on the concentration required 0-1000 μM). The addition sequence involved first adding the lecithin followed by heme, HCl, propionate buffer and finally the drug. Each sample was prepared in triplicate. Following addition of the reagents the samples were incubated at 37° C. with constant shaking for 18 h. After 18 h the assay was stopped by spinning the samples at 13,200 rpm for 10 minutes followed by carefully aspirating off the supernatant. The pellet was then resuspended in 50 mM bicarbonate buffer pH 9.0 (1 mL) and gently shaken at room temperature for 30 minutes to dissolve uncrystallized heme. The samples were then centrifuged as above and the supernatant removed. […] The samples were then dissolved in 0.1M NaOH to solubilize β-hematin to free heme and β-hematin formed was then quantified via heme absorbance at 402 nm. Calibration curves were prepared by titrating increasing amounts of heme in the same solvent vs. absorbance at 402 nm.

[3] = pKa determination by acid/base titration; type: physicochemical; conditions: distilled water; measured; read-out: quinolyl N pKa
Protocol: SPARC pKa calculator is an online tool developed at the University of Georgia by S. W. Karickhoff, L. A. Carreira and S. H. Hilal. Experimental pKa were determined using an Accumet AB15 pH meter and a calomel electrode. 10 mM solutions of the drugs (as dibasic salts) were made in distilled H2O and titrated at room temperature (23.0±2.0° C.) using 0.1 M NaOH. Titration plots were generated and pKa's extracted via inflection points from the second derivative plots; (Δ^2pH/ΔV^2) vs. V, where V represents the volume of the titrant added and ΔV is the volume increment.

[4] = tested on: CQS (HB3, GCO3) and CQR (Dd2, FCB) strains of P. falciparum; test: SYBR Green I antiplasmodial assay, several CQS and CQR strains; type: cell-based, Plasmodium falciparum
Excerpt: as §1
(§3) Bennett T. N.; Paguio, M.; Gligorijevic, B.; Seudieu, C.; Kosar, A. D.; Davidson, E.; Roepe, P. D. Novel, rapid, and inexpensive cell-based quantification of antimalarial drug efficacy. Antimicrob. Agents Chemother. 2004, 48, 1807-1810; Smilkstein, M.; Sriwilaijaroen, N.; Kelly, J. X.; Wilairat, P.; Riscoe, M. Simple and inexpensive fluorescence-based technique for high-throughput antimalarial drug screening. Antimicrob. Agents Chemother. 2004, 48, 1803-1806; and Johnson, J. D.; Dennull, R. A.; Gerena, L.; Lopez-Sanchez, M.; Roncal, N. E.; Waters, N.C. Assessment and continued validation of the malaria SYBR green I-based fluorescence assay for use in malaria drug screening. Antimicrob. Agents Chemother. 2007, 51, 1926-1933.
Drug activities were assessed and IC50 were quantified essentially as described previously. Delarue, S.; Girault, S.; Maes, L.; Debreu-Fontaine, M. A.; Labaeid, M.; Grellier, P.; Sergheraert, C. Synthesis and in vitro and in vivo antimalarial activity of new 4-anilinoquinolines. J. Med. Chem. 2001, 44, 2827-2833; and O'Neill, P. M.; Willock, D. J.; Hawley, S. R.; Bray, P. G.; Storr, R. C.; Ward, S. A.; Park, B. K. Synthesis, antimalarial activity, and molecular modeling of tebuquine analogues. J. Med. Chem. 1997, 40, 437-448.

[5] = tested on: HB3 (chloroquine sensitive strain of P. falciparum); test: SYBR Green I antiplasmodial assay, strain HB3; type: cell-based, Plasmodium falciparum; conditions: CQS strain HB3; read-out: IC50 against HB3
Excerpt: as §3, with “1926-1933. […] The selectivity index provides a quantitative measure of the antimalarial activity against CQR strains relative to that against sensitive strains and thus indicates promising drug discovery leads. […]” for “1926-1933.”
The antiplasmodial activity of these compounds was measured versus a CQS (HB3) and a CQR (Dd2) strain using a standardized, inexpensive assay based on SYBR Green I intercalation. […]
Drug activities were assessed and IC50 were quantified essentially as described previously. […] Fluorescence was measured at 530 nm (490 nm excitation) using a spectra geminiEM plate reader. […]

CCN(CC)CCCC(C)Nc1ccnc2cc(Cl)ccc12 (stereo not drawn) [CQ, chloroquine, reference compound]
IC50 ([1]; Plasmodium falciparum, DD2, read-out: IC50 against Dd2): 140 nM
IC50 [2]: 170 nM
affinity for monomeric heme (monomeric heme): poor affinity

CCN(CC)CCCCNc1ccnc2cc(Cl)ccc12 [compound 88, N-(7-Chloro-4-quinolyl)-N′,N′-diethyl-1,4-diaminobutane]
affinity for monomeric heme (monomeric heme): poor affinity
affinity (association constant Ka) vs. μ-oxo dimer (μ-oxo dimeric heme): quite similar

CCN(CC)CCCCSc1ccnc2cc(Cl)ccc12 [compound 98, S-(7-Chloro-4-quinolyl)-4-(N,N-diethylamino)butanethiol]
affinity for monomeric heme (monomeric heme): poor affinity
affinity (association constant Ka) vs. μ-oxo dimer (μ-oxo dimeric heme): quite similar
ability to inhibit Hz formation vs. that measured for CQ and 8 (hemozoin (Hz) formation; FIG. 26): significantly lower
pKa [3]: 4.1

CCN(CC)CCCC(CCCN(CC)CC)Oc1ccnc2cc(Cl)ccc12 [compound 102, 7-Chloro-4-(1′,7′-bis(diethylamino)-4′-heptoxy)quinoline]
activity vs. both CQR and CQS strains relative to 93 ([4]; FIG. 23): improved activity
fold lower IC50 relative to 98 ([4]; strains Dd2 and FCB): 10 fold
inhibition of Hz formation relative to monobasic 4O derivative 13 (hemozoin (Hz) formation): more potent inhibitor of Hz formation

CCN(CCNc1ccnc2cc(Cl)ccc12)CCNS(=O)(=O)c1cccc2c(N(C)C)cccc12 [compound 23]
IC50 [5]: 17.5 nM
IC50 ([1]; CQR strain Dd2, read-out: IC50 against Dd2): 22.7 nM
activity against the CQ resistant strain Dd2 in comparison with CQ ([1]; compared with CQ): significantly more potent
